Assay results taken from patent US20260250269A1, “APOPTOSIS INHIBITOR SALTS FOR CANCER” (priority 2022, published 2026).

Key:
[1] = Photostability test (ICH Option 1, ID65 light)
Description: Purity via HPLC, XRPD, and appearance inspection were performed before and after light exposure to determine photostability of the two compounds.
Light source—ICH Option 1 light source standard was adopted. ID65 light, equivalent indoor indirect daylight standard, with 250 W/m^2 light source intensity was used.
Total light exposure and light exposure time−total light exposure was set to 1.44 million lux light quantity (1000 lux×24 h×60 d=1,440,000 lux light quantity). Light stability testing box with ID65 light source of 250 W/m^2 intensity was adopted. According to ICH Option 1 standard, 21.8 hours light exposure could reach 1.2 million lux light quantity. Therefore, 26.2 hours light exposure is needed to reach 1.44 million lux quantity.
Testing—Accurately weight 0.5 g of the monobromide and the pamoate, place in petri dishes (covered with clear wrap film) and spread into a layer no more than 3 mm thickness, separately. Samples were put into light stability testing box, and received total amount of light exposure not less than 1.44 million lux light quantity (ID65 light, 250 W/m^2, 26.2 hours, 25° C., 60% relative humidity). After light exposure, samples were removed for characterization, including appearance inspection, XRPD and purity via HPLC.

[2] = pH of about 7.4
[3] = test system: SU-DHL-10 human diffuse large B cell lymphoma xenograft; assay: Anti-tumor activity against SU-DHL-10 xenograft; type: in vivo, BALB/c nude mice
Description: For the monobromide continuous i.v. infusion group, the monobromide was dissolved with physiological saline to prepare 12.12 mg/mL clear solution.
For the monobromide i.p. injection group, the monobromide was dissolved with physiological saline to prepare 0.41 mg/mL clear solution. The dose volume was determined by the mice′ body weight collected on the morning of dosing day, calculated by the formula: dose volume (10 mL/kg)×body weight.
For the pamoate i.m. injection group, the pamoate salt was mixed with appropriate volume of vehicle solution (0.5% CMC-Na (viscosity 400-800 cps, CAS No. 9004-32-4), 0.2% Tween-80 in 10 mM pH 7.4 PBS saline) to get a uniform suspension after 15 min sonication, with final concentration of 5.6 mg/mL, similar to the procedure described in Example 14. The dose volume was determined by the mice′ body weight collected on the morning of dosing day, calculated by the formula: dose volume (2 mL/kg)×body weight.
Human diffuse large B cell lymphoma cell line SU-DHL-10 was obtained from Cobioer Biotechnology Co., Ltd (China). The cells were cultured at 37° C. with 5% CO2 in RPMI-1640 (Hyclone, USA) supplemented with 10% heat inactivated fetal bovine serum (Gibco, USA) and 1% GlutaMAX (Gibco, USA). The cells were collected, suspended in PBS at 2×10^8 cells/mL, and then mixed with the equivalent volume of Matrigel® Basement Membrane Matrix (Corning, USA).
Six-week-old female BALB/c-nude mice were purchased from SPF Biotechnology Co., Ltd. (Beijing, China). They were maintained on a standard diet and water throughout the experiments under specific pathogen-free conditions. The cells were cultured in vitro and 0.1×10^8 cells/0.1 mL/mouse were grafted subcutaneously into the flank of NOD-SCID (NVSG) mice (Beijing Viewsolid Biotech Co. LTD), 6-week-old. When the tumor reached about 1 cm in diameter, tumor-bearing mice were sacrificed and tumors were removed and sliced into small fragments (approximately 3×3×3 mm^3/fragment) and re-inoculated into BALB/c nude mice. The mice with a tumor volume (length×width^2×0.5) of 99.28 to 247.10 mm^3 were divided into four groups randomly, using Study Director Software (Studylog Systems, Inc, Version 3.1.399.22, USA) to minimize intragroup and intergroup tumor volume variation.
The first day of administration was designated day 0, and observation continued until day 35. Each group was treated as follows (Table 15).
The vehicle control group received i.m. injection of vehicle solution on day 0, 7 and 14 (Group 1). For 21-day continuous i.v. infusion, an osmotic pump containing the monobromide was implanted in the dorsum of each animal while under anesthesia on day 0, with daily dose of […], approximately 1.6 mg/kg/day (Group 2). The monobromide i.p. injection group was administrated referring to FIVE-DAY-ON, TWO-DAY-OFF procedure on day 0-4, 7-11 and 14-18 (Group 3) per Minoda et. al, Antitumor effect of YM155, a novel small-molecule survivin suppressant, via mitochondrial apoptosis in human MFH/UPS, International Journal of Oncology, 2015, 47:891-899. For the pamoate i.m. injection group, drug suspension was administrated once per week at 11.2 mg/kg, approximately 7 times daily dosage of the monobromide i.v. infusion group, on day 0, 7 and 14 (Group 4).

Caspase-3 = Caspase-3 protein expression in xenografted SU-DHL-10 tumor (Western blot); type: in vivo, mouse; details: Form A, single i.m. injection 11.2 mg/kg, 24 hours post dosing, versus vehicle
Description: The pamoate was administrated via single intramuscular (i.m.) injection to SU-DHL-10 xenografted mice to examine the effect of the pamoate on c-Myc expression level in tumor at the 24-hour time point post injection.
The pamoate was mixed with appropriate volume of vehicle solution (0.5% carboxymethylcellulose sodium (CMC-Na, viscosity 400-800 cps, CAS No. 9004-32-4, Sigma-Aldrich, USA) and 0.2% Tween-80 in 10 mM pH 7.4 phosphate buffer saline (PBS)) to get a uniform suspension after 15 min sonication, with final concentration of 5.6 mg/mL. The dose volume was determined by the mice′ body weight collected on the morning of dosing day, calculated by the formula: dose volume (2 mL/kg)×body weight.
Human diffuse large B cell lymphoma cell line SU-DHL-10 was obtained from Cobioer Biotechnology Co., Ltd (China). […]
The tumor was excised with scissors, resuspended in cold cell lysis buffer containing 20 mM Tris (pH7.5), 150 mM NaCl, 1% Triton X-100, 2 mM AEBSF, […] Aprotinin, 130 μM Bestatin, 14 μM E64, 10 μM Leupeptin, 5 mM sodium fluoride, 1 mM sodium pyrophosphate, 1 mM β-glycerophosphate and 1 mM sodium orthovanadate, and then homogenized with handheld homogenizer (Beyotime, China). […] Protein contents were determined using Micro BCA™ Protein Assay Kit (23235, Thermo Scientific, USA). […] Visualization was carried out using the Enhanced Chemi-luminescence Kit (Beyotime, China).

[4] = Body weight in SU-DHL-10 xenografted mice; details: for Mean Body Weight ± SEM: Group 4: Form A, 11.2 mg/kg i.m. Day 0, 7, 14
[5] = ID65 light, 250 W/m^2, 25° C./60% RH (ICH Option 1), 26.2 hours
[6] = Initial, irradiation time 0 hours
[7] = Group 4: Form A, 11.2 mg/kg i.m. Day 0, 7, 14, Day 21
[8] = Group 4: Form A, 11.2 mg/kg i.m. Day 0, 7, 14, Day 35

For COCCn1c2c([n+](Cc3cnccn3)c1C)C(=O)c1ccccc1C2=O.COCCn1c2c([n+](Cc3cnccn3)c1C)C(=O)c1ccccc1C2=O.O=C([O-])c1cc2ccccc2c(Cc2c(O)c(C(=O)[O-])cc3ccccc23)c1O [pamoate salt], the “Photostability (in words)” value ([1]; ICH Option 1 irradiation, 26.2 hours) was “excellent photostability”, the Description [1, 5] was “Purple” and the “Purity % (HPLC)” value [1, 5] was 99.38%. The XRPD [1, 5] was “Consistent”, the Description [1, 6] was “Purple” and the “Purity % (HPLC)” value [1, 6] was 99.29%. For the same molecule, the “Change in the appearance, XRPD and HPLC purity” value ([1]; after ICH Option 1 irradiation, 26.2 hours) was “no significant change”, the Aqueous solubility [2] was “less than 0.02 mg/mL” and the “Mean Tumor Volume ± SEM” value ([3]; Group 4: Form A, 11.2 mg/kg i.m. Day 0, 7, 14, Day 0) was 151.26 ± 23.65 mm^3. The “Mean Tumor Volume ± SEM” value ([3]; Group 4: Form A, 11.2 mg/kg i.m. Day 0, 7, 14, Day 7) was 0.00 ± 0.00 mm^3, the “Antitumor Activity, percent inhibition of tumor growth (% inh)” value [3, 7] was 118.27% and the “Antitumor Activity, percent regression of the tumor (% reg)” value [3, 7] was 100%. The “Mean Tumor Volume ± SEM” value [3, 7] was 0.00 ± 0.00 mm^3, the “Mean Tumor Volume ± SEM” value ([3]; Group 4: Form A, 11.2 mg/kg i.m. Day 0, 7, 14, Day 28) was 23.61 ± 23.61 **^, N.S., $ mm^3 and the “Antitumor Activity, percent inhibition of tumor growth (% inh)” value [3, 8] was 98.22%. For the same molecule, the “Antitumor Activity, percent regression of the tumor (% reg)” value [3, 8] was −19.21%, the “Mean Tumor Volume ± SEM” value [3, 8] was 180.32 ± 101.25 **^, N.S., $ mm^3 and the “Number of CRs (complete response)” value [3, 8] was 3/6. The “Safety and efficacy (in words)” value ([3]; SU-DHL-10 xenograft tumor model) was “good safety and efficacy”, the “Cleaved Caspase-3 expression in tumors” value (Caspase-3) was “increased” and the “Full length Caspase-3 expression in tumors” value (Caspase-3) was “decreased”. For the same molecule, the “Mean Body Weight ± SEM” value ([4]; Day 21) was 21.43 ± 0.35 ^N.S. g, the “Mean Body Weight ± SEM” value ([4]; Day 35) was 22.65 ± 0.30 ^N.S. g and the “Body weight decrease (in words)” value ([4]; each group (Groups 2-4), until day 35) was “no statistically significant decrease in body weight”.
